Source: US20120282377A1, “Methods and Formulations for Inhibiting Degradation of Photosensitive Sweeteners and Sweetener Enhancers” (priority 2011, published 2012)

Columns and labels:
Type in all cases: physicochemical
[1] = Photodegradation on exposure to sunlight / UV light (background statements); settings: sunlight for 2-3 days
Text: Monatin (2-amino-4-carboxy-4-hydroxy-5-(3-indolyl)-pentanoic acid or 4-hydroxy-4-(3-indolylmethyl)-glutamic acid) is a natural sweetener. Monatin contains two chiral centers and therefore has four potential isomeric configurations: R,R-; S,S-; R,S-; and S,R-monatin. Different stereoisomers have different sweetening characteristics. Amino et al. have reported that the sweetness intensity is dependent on the optical purity of each stereoisomer (U.S. Patent Publication No. 2005/0020508).

[2] = Sucrose enhancer stability in prototype beverage formulation, UV irradiation in Atlas SunTest XLS+ (Example 6)
Protocol: The stability of sucrose enhancer 3-((4-amino-2,2-dioxido-1H-benzo[c][1,2,6]thiadiazin-5-yl)oxy)-2,2-dimethyl-N-propylpropanamide in regular PET bottles and PET bottles with UV barrier was evaluated. A control formulation was used that contained 106 mg sucrose enhancer in 4163 mg of a prototype beverage formulation. The prototype beverage formulation contained water, HFCS-55, citric acid, potassium citrate, EDTA, salts and vitamins. The samples were exposed to UV light using different Langley irradiation energy exposure at 40° C. in Atlas SunTest XLS+chamber.

[3] = Stability of sweetness enhancer to sunlight exposure in PET bottle with and without UV barrier (Example 1); settings: 25 mg/L solution, 395 Langleys (Atlas Sun Test XLS+)
Protocol: Sweetness enhancer 3-((4-amino-2,2 -dioxido-1H-benzo [c][1,2,6]thiadiazin-5-yl)oxy)-2,2-dimethyl-N-propylpropanamide was evaluated for stability to sunlight exposure when formulated into a beverage packaged in PET packaging (bottle) with and without a UV barrier. The UV barrier PET bottle contained a UV absorbent compound that absorbs light up to approximately 390 nm. When a 25 mg/L solution of 3-((4-amino-2,2-dioxido-1H-benzo[c][1,2,6]thiadiazin-5-yl)oxy)-2,2-dimethyl-N-propylpropanamide was exposed to 395 Langleys of radiation (Atlas Sun Test XLS+Instrument) in a clear PET bottle with no UV barrier, 92% of 3-((4-amino-2,2 -dioxido-1H-benzo [c][1,2,6]thiadiazin-5-yl)oxy)-2,2-dimethyl-N-propylpropanamide was lost to degradation. The light exposure in this experiment was approximately equivalent to 24 hours of continuous irradiation or 2-3 days of normal sunlight irradiation (due to day/night cycle). In contrast, when the same experiment was carried out in a UV barrier PET bottle, only 10% of the 3-((4-amino-2,2-dioxido-1H-benzo[c][1,2,6]thiadiazin-5-yl)oxy)-2,2-dimethyl-N-propylpropanamide was lost to degradation.

[4] = prototype beverage formulation (control), PET, 0 Langley
[5] = prototype beverage formulation, PET with UV barrier, 66 Langley, 40° C.
[6] = prototype beverage formulation, PET with UV barrier, 197 Langley, 40° C.
[7] = prototype beverage formulation, PET with UV barrier, 395 Langley, 40° C.
[8] = prototype beverage formulation, PET, 66 Langley, 40° C.
[9] = prototype beverage formulation, PET, 197 Langley, 40° C.
[10] = prototype beverage formulation, PET, 395 Langley, 40° C.

Loss of Sucrose Enhancer (%) [2, 4]: 0%
Remaining Sucrose Enhancer (%) [2, 4]: 100%
Remaining Sucrose Enhancer (ppm) [2, 4]: 21.5 ppm
Loss of Sucrose Enhancer (%) [2, 5]: 4%
Remaining Sucrose Enhancer (%) [2, 5]: 96%
Remaining Sucrose Enhancer (ppm) [2, 5]: 20.7 ppm
Loss of Sucrose Enhancer (%) [2, 6]: 5%
Remaining Sucrose Enhancer (%) [2, 6]: 95%
Remaining Sucrose Enhancer (ppm) [2, 6]: 20.5 ppm
Loss of Sucrose Enhancer (%) [2, 7]: 10%
Remaining Sucrose Enhancer (%) [2, 7]: 90%
Remaining Sucrose Enhancer (ppm) [2, 7]: 19.3 ppm
Loss of Sucrose Enhancer (%) [2, 8]: 37%
Remaining Sucrose Enhancer (%) [2, 8]: 63%
Remaining Sucrose Enhancer (ppm) [2, 8]: 13.6 ppm
Loss of Sucrose Enhancer (%) [2, 9]: 75%
Remaining Sucrose Enhancer (%) [2, 9]: 25%
Remaining Sucrose Enhancer (ppm) [2, 9]: 5.4 ppm
Loss of Sucrose Enhancer (%) [2, 10]: 92%
Remaining Sucrose Enhancer (%) [2, 10]: 7.9%
Remaining Sucrose Enhancer (ppm) [2, 10]: 1.7 ppm
lost to degradation ([3]; UV barrier PET bottle): 10%
lost to degradation ([3]; clear PET bottle with no UV barrier): 92%
Structure (SMILES): CCCNC(=O)C(C)(C)COc1cccc2c1C(N)=NS(=O)(=O)N2 [Sucrose enhancer, 3-((4-amino-2,2-dioxido-1H-benzo[c][1,2,6]thiadiazin-5-yl)oxy)-2,2-dimethyl-N-propylpropanamide]
degradation upon exposure to sunlight [1]: completely degraded to inactive ingredients
